Source: patent US7208154B2, “Methods and compositions for the treatment of MHC-associated conditions” (Regents of the University of Michigan, priority 2002, dated 2007)

System: Total cellular protein extracts
Test: Peptide affinity chromatography of total cellular protein extracts
Type: binding
Conditions: total cellular protein extracts loaded
Description: Total cellular protein extracts were loaded onto columns of Sepharose beads, conjugated with either shared epitope-containing peptide 65–78*0404 [SEQ ID NO: 28] or the control peptide 65–78*0402 [SEQ ID NO: 8]. Bound proteins were eluted at low pH. […] 11 sequenced bands matched intracellular proteins, and only two sequences matched previously identified cell surface proteins: heat shock protein 60 (HSP60) and calreticulin. Both calreticulin and HSP60 are chaperones, with strong tendency to form hetero-complexes.

Sequence: KDILEDERAAVDTYC [65–79*0402, control peptide, amino acids 65–79 of the β chain encoded by the HLA-DRB*0402 allele]
- Protein binding: distinct bands in low pH eluates of peptide-conjugated Sepharose column: no protein binding was detected
